Test results taken from patent US9017962B2, “Intracellular reporters” (The Johns Hopkins University, priority 2007, dated 2015).
Entries after “also recorded” stand apart in the source; their conditions may differ.

How the values were obtained:
Format in all cases: cell-based
Akt [1] = experiment: AktAR emission ratio imaging in NIH3T3 cells
Procedure: (§1) NIH 3T3 cells were used in all experiments. The cells were plated on sterilized glass coverslips in 35-mm dishes and were grown to 40% confluency in Dulbecco's modified Eagle's medium (10% FBS) at 37° C. with 5% CO2. Cells were transfected with Lipofectamine (Invitrogen) then serum-starved for 24 h before imaging.
(§2) NIH 3T3 cells were washed once with Hanks' balanced salt solution (HBSS) buffer and imaged in the dark at room temperature. Images were acquired on a Zeiss Axiovert 200M microscope with a cooled charge-coupled device camera, as described in Ananthanarayanan, 2005. Dual emission ratio imaging used a 420DF20 excitation filter, a 450DRLP dichroic mirror, and two emission filters. For CFP and YFP, 475DF40 and 535DF25 were used respectively. Exposure time was 50-500 ms. Images were taken every 20-30 s.
(§3) Imaging data were analyzed with Metafluor 6.2 software (Universal Imaging, Downingtown, Pa.). Fluorescence images were background-corrected by deducting the background (regions with no cells) from the emission intensities of CFP or YFP. Traces before addition of drugs were normalized to 1.

Akt [2] = experiment: Mito-AktAR imaging, Akt activity at the mitochondrial outer membrane, NIH3T3 cells
Excerpt: (§4) All of the targeting tags were subcloned to AktAR from targeted A Kinase Activity Reporter (AKAR) (Allen & Zhang, Biochem Biophys Res Commun. 2006, 22; 348(2):716-21). Two plasma membrane targeted AktAR, PM(Lyn)-AktAR and AktAR-PM(CAAX), were generated by addition of the N-terminal portion of Lyn kinase gene at the 5′ end and CAAX tag at the 3′ end of AktAR, respectively. Nuclear localization was achieved by a C-terminal nuclear localization signal (NLS) tag (PKKKRKVEDA, SEQ ID NO:31). The targeting motif from DAKAP1a was used to target AktAR to the outer membrane of mitochondria.
as §1, §2, §3
It has been known that Akt has several mitochondrial substrates. […] In summary, no basal, PDGF-stimulated, or phosphatase-suppressed endogenous Akt was detected at this location. It is possible that the extremely low activity of Akt at the mitochondrial outer membrane cannot be detected by Mito-AktAR.

p38 MAPK = experiment: JNK reporter specificity: inhibition of p38 MAPK in HeLa cells; settings: 25 μM, 45 min pre-treatment and continual presence
Procedure: FIG. 16A-B. Characterization of a MAPK reporter. FIG. 16A, Co-transfection of reporter with mCherry-JIPδ. To inhibit JNK activity, HeLa cells were co-transfected with the reporter and mCherry-JIPδ and imaged 24 h later in HBSS containing 10% FBS on stage warmer heated to 37° C. […] FIG. 16B, Response of reporter to inhibition of p38 MAPK.
To test the specificity of the reporter, HeLa cells were co-transfected with the reporter and a fusion construct of mCherry with the docking (δ) domain from JIP1.

calcineurin [3] = experiment: Electrophoretic mobility of CaNAR1 from HeLa cell lysates (western blot); settings: preincubation prior to ionomycin treatment
Procedure: (§5) FIG. 23A-B. CaNAR1 is dephosphorylated in a calcineurin-dependent manner. FIG. 23A, graph of average response of CaNAR1 in the presence (black squares) or absence (gray diamonds) of cyclosporin A (CsA, 1-μM, 10 minute preincubation). Ionomycin and CaCl2 treatments are as described for FIG. 22. The standard error at each time point is shown (n=4 and 6 in the presence or absence of CsA, respectively). FIG. 23B, the electrophoretic mobility of CaNAR1 isolated from HeLa cell lysates was determined at various times after ionomycin addition using standard western blotting techniques using a rabbit anti-GFP antibody (diluted 1:4000 in blocking buffer) was used to probe for CaNAR1.
Next, to correlate the FRET change with dephosphorylation of CaNAR1, we took advantage of the fact that the electrophoretic mobility of NFAT1 is strongly influenced by its phosphorylation state. […] Though its calculated molecular weight is 85 kDa, CaNAR1 migrated almost exclusively as an approximately 125 kDa species in uninduced cell lysates, consistent with hyperphosphorylation of its substrate region. […] Thus, the observed FRET change is correlated with dephosphorylation of the reporter by calcineurin, providing a real-time readout for calcineurin activity.

calcineurin [4] = experiment: Calcineurin activity reporter emission ratio imaging in HeLa cells; settings: 1 μM, 10 minute preincubation
Procedure: FIG. 22. Characterization of calcineurin activity reporter 1 (CaNAR1). Graph of representative response of CaNAR1-expressing HeLa cells following ionomycin treatment. Ionomycin (1 μM) and additional CaCl2 (5 mM) were added to the imaging solution at the indicated times (arrows). The standard deviation for each time point is shown (n=2).
as §5
To generate a FRET-based reporter capable of monitoring calcineurin activity in live cells, we initially chose to flank NFAT1(1-415) with ECFP and cpV(L194) at the N- and C-termini, respectively. […] The emission ratio of yellow over cyan was then measured over time in HeLa cells expressing each construct, and their signals compared. […]

Akt [5] = experiment: Plasma membrane targeted AktAR imaging in NIH3T3 cells; settings: 5 mM pre-incubation for 30 min
Excerpt: as §4, §1
NIH 3T3 cells were washed once with Hanks' balanced salt solution (HBSS) buffer and imaged in the dark at room temperature. Images were acquired on a Zeiss Axiovert 200M microscope with a cooled charge-coupled device camera, as described in Ananthanarayanan, 2005. […]
Imaging data were analyzed with Metafluor 6.2 software (Universal Imaging, Downingtown, Pa.). Fluorescence images were background-corrected by deducting the background (regions with no cells) from the emission intensities of CFP or YFP. […]

In the case of `COC[C@@H]([C@H](O)[C@H](O)C(=O)NCC[C@H](C)c1nc(/C=C/C[C@@H]2O[C@]3(C[C@@H](O)[C@@H]2C)O[C@H]([C@H](C[C@H](O)[C@H](C)[C@H](O)[C@H](C)/C=C(C)/C(C)=C/C=C/C(C)=C\C#N)OC)[C@H](OP(=O)(O)O)C3(C)C)co1)N(C)C` [Calyculin A], the “effect on AktAR response” value (Akt [1]; 5 nM after PDGF 50 ng/ml, serum-starved NIH3T3 cells) is reported as “substantially increased the response of AktAR”, the “effect on Mito-AktAR response” value (Akt [2]; endogenous Akt, Calyculin A 5 nM or LY294002 20 μM) is reported as “did not recover any Akt activity” and the “effect on Mito-AktAR response” value (Akt [2]; overexpressed Mito-mCherry-Akt1, Calyculin A 5 nM or LY294002) is reported as “failed to activate mitochondrial outer membrane-bound Akt”. For the same compound, the “effect on Mito-AktAR response” value (Akt [2]; overexpressed mCherry-Akt1, after PDGF, Calyculin A 5 nM or LY294002 20 μM) was “further increased the response”.

In the case of `C[S+]([O-])c1ccc(-c2nc(-c3ccncc3)c(-c3ccc(F)cc3)[nH]2)cc1` (stereo not shown) [SB203580], the “effect on response of the reporter to anisomycin” value (p38 MAPK) is reported as “does not affect the response of the reporter to anisomycin”.

In the case of `CCCCCCCCCCCCCCCCCCOC[C@H](COP(=O)(O)O[C@H]1[C@H](O)[C@@H](O)[C@H](O)C[C@H]1OC)OC` [SH-5], the “AktAR response to PDGF after pre-incubation with inhibitor” value (Akt [1]; 6 μM pre-incubation in HBSS, PDGF 50 ng/ml) is reported as “did not show substantial response”.

In the case of Cyclosporin A [CsA], the “effect on electrophoretic mobility of CaNAR1 after ionomycin” value (calcineurin [3]) is reported as “no change in the electrophoretic mobility”, the “effect on FRET change of CaNAR1 induced by ionomycin” value (calcineurin [4]) is reported as “completely abolished the FRET change” and the “effect on FRET change of CaNAR1 induced by ionomycin” value (calcineurin [4]; listed as cyclosporine A) is reported as “abolished”.

For methylated β-cyclodextrin [MβCD], the “effect on PM(Lyn)-AktAR response to PDGF (lipid rafts)” value (Akt [5]) was “delayed response and reduced dynamic range; also recorded: diminishes Akt activity at the plasma membrane lipid rafts”.
